Laboratory results as given in patent US20240407385A1, “HIGH PURITY PHYLLODULCIN EXTRACT” (SYMRISE AG, priority 2021, published 2024).

Assay: Sensory evaluation of sweetness compared with pure (R)-phyllodulcin (Example 4)
Assay type: in vivo
Settings: dose 5 mg/kg; panel n=20
Experimental: Two samples (samples 1 and 2) were prepared by a method according to the invention. Particularly, the leaf material was extracted two times with ethyl acetate (in an amount of 5 times of the weight of the leaf material) and wherein the precipitation was performed with ethanol at 10° C. Furthermore, the solid was washed with ethanol (in an amount of 3 times of the weight of the solid) at 5° C.
Sample 3 was extracted from leaf material, however, no precipitation was performed.
The samples were then compared with the pure substance (R)-phyllodulcin with regard to their sensory evaluation.

COc1ccc([C@H]2Cc3cccc(O)c3C(=O)O2)cc1O [(R)-phyllodulcin, (3R)-8-Hydroxy-3-(3-hydroxy-4-methoxyphenyl)-3,4-dihydro-1 H-isochromen-1-one]
Sweetness: 27.0%
